Several values for one entry are separate records, joined by “and”; a condition that tells them apart may be missing. Identical values can stand only once. Like-named read-outs stand apart in the source and are kept apart here. Values belong to the molecule of their own block, whether it stands above or below them.
Tests used:
[1] = molecular target: T1, functional uptake of serotonin (5-HT) (Rattus norvegicus, UniProt P31652); experiment: Serotonin functional uptake assay in rat synaptosomes; format: biochemical; details: for inhibition at 10 µM: tested initially at 10 μM in duplicate
T1 construct: synaptosomes isolated in a 0.32M sucrose buffer from a male Wistar rat cortex; from tissue

[2] = molecular target: T2, functional uptake of dopamine (DA) (Rattus norvegicus, UniProt P23977); experiment: Dopamine functional uptake assay in rat striatum synaptosomes; format: biochemical; details: for IC50: rat striatum synaptosomes, [3H]-dopamine, 15 minutes at 37° C.; for inhibition at 10 µM: tested initially at 10 μM in duplicate, read-out: inhibition of DA uptake (no IC50), Table 1
T2 construct: synaptosomes isolated at Cerep in a 0.32 M sucrose buffer from a male Wistar rat striatum; tissue Cerep; host or cells: male Wistar rat striatum synaptosomes

[3] = molecular target: functional uptake of norepinephrine (NE) (Rattus norvegicus, UniProt Q9WTR4); experiment: Norepinephrine functional uptake assay in rat hypothalamus synaptosomes; format: biochemical; details: [3H]-norepinephrine, 20 minutes at 37° C.
[4] = Behavioral Despair Test in Mice; format: in vivo; parameters: key to Dunnett, significance vs vehicle: * indicates a significant difference vs vehicle for P < 0.05 (Dunnett test)
[5] = Hamelin et al. 1996; Serebruany et al. 2001; cited from earlier work
[6] = 10 mg/kg, N = 10, E intraperitoneal
[7] = 50 mg/kg intraperitoneal, N = 10

T2 sequence (P23977 whole entry): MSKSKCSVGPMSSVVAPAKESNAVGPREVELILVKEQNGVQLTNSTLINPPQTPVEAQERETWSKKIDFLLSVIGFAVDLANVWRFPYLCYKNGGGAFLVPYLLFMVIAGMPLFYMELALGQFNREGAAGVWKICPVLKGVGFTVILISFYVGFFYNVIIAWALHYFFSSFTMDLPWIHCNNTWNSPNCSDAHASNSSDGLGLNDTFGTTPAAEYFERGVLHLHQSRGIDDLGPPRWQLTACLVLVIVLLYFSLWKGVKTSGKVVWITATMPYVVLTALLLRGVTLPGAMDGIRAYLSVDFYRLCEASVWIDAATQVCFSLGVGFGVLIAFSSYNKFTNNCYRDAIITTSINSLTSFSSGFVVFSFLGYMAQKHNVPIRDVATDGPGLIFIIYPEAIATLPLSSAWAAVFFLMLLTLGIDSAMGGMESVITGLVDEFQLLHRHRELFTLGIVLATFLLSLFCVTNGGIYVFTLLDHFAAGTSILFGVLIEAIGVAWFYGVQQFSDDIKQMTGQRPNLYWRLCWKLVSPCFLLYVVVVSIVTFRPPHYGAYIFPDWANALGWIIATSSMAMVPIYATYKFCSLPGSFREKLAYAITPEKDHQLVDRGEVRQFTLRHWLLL
T1 sequence (P31652 whole entry): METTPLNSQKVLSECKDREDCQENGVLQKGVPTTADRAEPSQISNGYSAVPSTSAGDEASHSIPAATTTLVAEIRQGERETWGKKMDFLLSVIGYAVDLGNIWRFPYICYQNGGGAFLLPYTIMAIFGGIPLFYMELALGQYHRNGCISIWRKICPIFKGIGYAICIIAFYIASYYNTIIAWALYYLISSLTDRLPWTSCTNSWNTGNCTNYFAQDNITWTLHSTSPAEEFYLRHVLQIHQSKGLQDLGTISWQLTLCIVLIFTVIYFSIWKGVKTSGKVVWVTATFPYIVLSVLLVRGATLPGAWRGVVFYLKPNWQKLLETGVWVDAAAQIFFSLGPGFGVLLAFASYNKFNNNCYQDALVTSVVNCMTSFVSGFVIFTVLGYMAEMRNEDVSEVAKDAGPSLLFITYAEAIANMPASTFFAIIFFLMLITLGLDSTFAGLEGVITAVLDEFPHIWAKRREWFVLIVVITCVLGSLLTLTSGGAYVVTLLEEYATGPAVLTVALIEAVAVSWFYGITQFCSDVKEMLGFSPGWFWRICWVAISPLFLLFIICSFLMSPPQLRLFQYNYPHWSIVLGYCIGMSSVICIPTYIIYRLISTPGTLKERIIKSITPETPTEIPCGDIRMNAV

inhibition at 10 µM ([1]; read-out: inhibition of 5-HT uptake (no IC50), Table 3): < 50%
IC50 [2]: 530 nM
IC50 [3]: 3900 nM
Compound: O=CN[C@@H]1CC[C@@H](c2ccc(Cl)c(Cl)c2)c2ccccc21 (racemic) [F, N-[4-(3,4-dichlorophenyl)-1,2,3,4-tetrahydronaphthalen-1-yl]formamide]

inhibition at 10 µM ([1]; read-out: inhibition of 5-HT uptake (no IC50), Table 1): < 50%
Compound: Fc1ccc(C(OCCN2CCN(CCCc3ccccc3)CC2)c2ccc(F)cc2)cc1 [GBR 12909, reference compound]

IC50 [3]: 611 nM
Compound: CC(NC(C)(C)C)C(=O)c1cccc(Cl)c1 (stereo not drawn) [bupropion, reference compound]

Compound: CNCCCC1c2ccccc2C=Cc2ccccc21 [protriptyline, reference compound]
inhibition at 10 µM [2]: < 50%

IC50 ([1]; rat synaptosomes, [3H]5-hydroxytryptamine, 15 min at 37° C.): 7500 nM
IC50 [2]: 510 nM
IC50 [3]: 400 nM
Compound: O=CN[C@@H]1CC[C@@H](c2ccc(Cl)c(Cl)c2)c2ccccc21 [E, (R,S/S,R) N-[4-(3,4-dichlorophenyl)-1,2,3,4-tetrahydronaphthalen-1-yl]formamide]
Dunnett, significance vs vehicle ([4]; 10 mg/kg, N = 10): *
Immobility Duration (sec.), individual mice [4, 6]: 59 s and 162 s and 131 s and 22 s and 167 s and 58 s and 135 s and 122 s and 164 s and 50 s
Immobility Duration, Mean ± sem [4, 6]: 107 s
Immobility Duration (sec.), individual mice [4, 7]: 15 sec. (2×) and 0 sec. (3×) and 98 sec. and 34 sec. and 59 sec. and 25 sec. and 63 sec.
Immobility Duration, Mean ± sem [4, 7]: 31 s
Dunnett, significance vs vehicle ([4]; 50 mg/kg, N = 10): *

Compound: N[C@H]1CC[C@@H](c2ccc(Cl)c(Cl)c2)c2ccccc21 [norsertraline, (1S,4S)-cis 4-(3,4-dichlorophenyl)-1,2,3,4-tetrahydro-1-naphthalenamine]
neurological activity as stated in literature reports [5]: neurologically inactive

IC50 [3]: 35 nM
Compound: N[C@H]1CC[C@H](c2ccc(Cl)c(Cl)c2)c2ccccc21 [Q, (1S,4R)-trans 4-(3,4-dichlorophenyl)-1,2,3,4-tetrahydro-1-naphthalenamine]

IC50 [2]: 7.1 nM
IC50 [3]: 8.8 nM
Compound: N[C@@H]1CC[C@@H](c2ccc(Cl)c(Cl)c2)c2ccccc21 (racemic) [P + Q, trans-4-(3,4-dichlorophenyl)-1,2,3,4-tetrahydro-1-naphthalenamine]

Compound: CN(C)CCCN1c2ccccc2CCc2ccccc21 [imipramine, reference compound]
inhibition at 10 µM [2]: < 50%
Dunnett, significance vs vehicle ([4]; 10 mg/kg, N = 10): *
Immobility Duration (sec.), individual mice [4, 6]: 28 sec. and 156 sec. and 98 sec. and 0 sec. (2×) and 63 sec. and 30 sec. and 56 sec. and 116 sec. and 64 sec.
Immobility Duration, Mean ± sem [4, 6]: 61 s

IC50 [3]: 9.6 nM
Compound: N[C@@H]1CC[C@@H](c2ccc(Cl)c(Cl)c2)c2ccccc21 [P, (1R,4S)-trans 4-(3,4-dichlorophenyl)-1,2,3,4-tetrahydro-1-naphthalenamine]

— patent US10702486B2, “Treatment of CNS disorders with trans 4-(3,4-dichlorophenyl)-1,2,3,4-tetrahydro-1-naphthalenamine” (SUNOVION PHARMACEUTICALS INC., priority 2002, dated 2020)
